In article PMC7613620, “Reaction hijacking of tyrosine tRNA synthetase as a whole-of-life-cycle antimalarial strategy” (Science (New York, N.Y.), 2022):
Like-named read-outs stand apart in the source and are kept apart here.

Key:
[1] = molecular target: T1, HsYRS (Homo sapiens, UniProt P54577); assay: Differential scanning fluorimetry, HsYRS; format: binding
T1 construct: made in house; host or cells: E. coli BL21(DE3), pET-11a
T1 sequence (P54577 1-364): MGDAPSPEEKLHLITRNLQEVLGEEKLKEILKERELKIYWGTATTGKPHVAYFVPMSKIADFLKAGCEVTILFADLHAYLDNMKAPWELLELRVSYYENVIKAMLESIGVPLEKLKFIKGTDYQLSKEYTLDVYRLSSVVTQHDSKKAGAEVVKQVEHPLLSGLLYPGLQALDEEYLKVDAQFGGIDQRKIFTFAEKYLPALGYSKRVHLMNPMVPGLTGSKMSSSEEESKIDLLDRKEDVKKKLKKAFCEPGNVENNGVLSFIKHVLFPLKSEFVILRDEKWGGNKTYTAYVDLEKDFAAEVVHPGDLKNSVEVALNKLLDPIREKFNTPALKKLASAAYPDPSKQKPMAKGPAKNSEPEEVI
Method: This DNA template and its complementary strand were custom-synthesized by Sigma-
(§1) 810 (HiScribe™ T7 Quick High Yield RNA Synthesis Kit, NEB). On the following day, the reaction mixture
(§2) 820 was sealed and analysed using StepOnePlus Real-Time PCR system (Applied Biosystems). The samples
The thermal unfolding curve was plotted
The melting temperature (Tm), defined as the
Reactions were conducted in 50 mM Tris-
Reactions were conducted in 50 mM Tris-HCL, pH 7.6,

[2] = molecular target: PfYRS (Plasmodium falciparum, UniProt Q8IAR7); assay: biochemical; format: binding
Sequence of PfYRS (Q8IAR7 entry or part of it): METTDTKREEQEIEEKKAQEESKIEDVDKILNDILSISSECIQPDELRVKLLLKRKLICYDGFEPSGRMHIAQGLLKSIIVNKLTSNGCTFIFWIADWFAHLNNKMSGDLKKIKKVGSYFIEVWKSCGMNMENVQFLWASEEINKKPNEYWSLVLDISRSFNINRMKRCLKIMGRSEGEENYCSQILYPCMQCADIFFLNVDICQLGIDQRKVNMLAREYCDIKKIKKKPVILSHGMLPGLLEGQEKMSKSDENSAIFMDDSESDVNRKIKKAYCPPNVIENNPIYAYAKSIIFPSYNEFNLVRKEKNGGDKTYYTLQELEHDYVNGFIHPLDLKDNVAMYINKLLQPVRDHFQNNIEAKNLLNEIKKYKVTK
Method: (§3) 804 An intron was detected in the PftRNATyr sequence, that was not indicated in PlasmoDB. A T7 RNA
(§4) 805 polymerase promoter sequence was added to the 5’ end of the DNA sequence of P. falciparum and H.
(§5) 806 sapiens tRNATyr. This DNA template and its complementary strand were custom-synthesized by Sigma-
(§6) 807 Aldrich. Two oligonucleotides were annealed at 95°C for 5 min and the double-stranded DNA template
(§7) 808 was used for in vitro transcription. The transcription reaction was incubated at 37°C overnight. The reaction
(§8) 809 mixture consists of template DNA, T7 RNA polymerase and NTP mix as per manufacturer's instructions
as §1
(§9) 811 was treated with DNase I at 37°C for 15 min. tRNA was purified using RNA clean-up spin columns
(§10) 812 (Monarch® RNA Cleanup Kit, NEB) to remove contaminants from the transcription reaction.
(§11) 814 Differential scanning fluorimetry (DSF)
(§12) 815 PfYRS and HsYRS at 0.1 mg/ml were incubated with various substrates at 37°C for 1-3 h. PfYRS was
(§13) 816 assayed in 25 mM Tris, pH 8, 150 mM NaCl, 5 mM MgCl2 and 1 mM TCEP. HsYRS was assayed in 50
(§14) 817 mM Tris, pH 7.5, 150 mM NaCl, 50 mM KCl, 5 mM MgCl2 and 1 mM TCEP. SYPRO Orange (Sigma-
(§15) 818 Aldrich; 5,000X concentrate in DMSO) was added to the reaction mixture at a final concentration of 2.5X.
(§16) 819 25 µL of the sample was added into each well of a 96-well qPCR plate (Applied Biosystems). The plate
as §2
(§17) 821 were heated from 20°C to 90°C with a 1% continuous gradient. The thermal unfolding curve was plotted
(§18) 822 as the first derivative curve of the raw fluorescence values. The melting temperature (Tm), defined as the
(§19) 823 peak of the first derivative curve, was used to assess the thermal stability of protein-ligand complexes. KD
(§20) 824 values were calculated from DTm using the equation: ln(KD/[L]) = -131.5 x (∆Tm/Tm,apo) - 1.9, where [L]
(§21) 825 is the concentration of ligand and T is the temperature in Kelvin (40). […]

[3] = molecular target: PfYRSS234C (Plasmodium falciparum, UniProt Q8IAR7, S234C); assay: biochemical; format: binding
Sequence of PfYRSS234C (Q8IAR7 whole entry S234C): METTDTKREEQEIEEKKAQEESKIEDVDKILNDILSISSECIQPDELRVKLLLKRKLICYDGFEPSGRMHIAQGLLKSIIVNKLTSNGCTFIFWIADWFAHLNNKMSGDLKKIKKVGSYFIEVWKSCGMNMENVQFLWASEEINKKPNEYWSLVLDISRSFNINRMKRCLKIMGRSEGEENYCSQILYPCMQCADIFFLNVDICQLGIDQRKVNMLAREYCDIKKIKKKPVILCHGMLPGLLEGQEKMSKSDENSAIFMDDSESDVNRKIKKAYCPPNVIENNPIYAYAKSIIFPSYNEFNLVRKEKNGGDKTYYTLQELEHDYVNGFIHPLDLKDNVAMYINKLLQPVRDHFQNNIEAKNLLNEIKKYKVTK
Method: as §3, §4, §5, §6, §7, §8, §1, §9, §10, §11, §12, §13, §14, §15, §16, §2, §17, §18, §19, §20, §21

[4] = tested on: PfYRS knockdown line; assay: Growth inhibition of aptamer-regulatable PfYRS knockdown line (luciferase, 72 h); format: cell-based, Plasmodium falciparum; details: for IC50: Plasmodium falciparum, read-out: IC50 against the PfYRS knockdown line (control compounds)
Text: 674 Generation and analysis of PfYRS knock-down transfectants
675 A conditional regulatable line for the cytosolic PfYRS (PF3D7_0807900) was generated by integrating the
676 gene regulatable system, TetR-DOZI-RNA aptamer module at the 3'-end of the target gene, in P. falciparum
677 parasites using CRISPR-Cas9 and homology-driven repair (55, 56). A line harbourbing an aptamer-
678 regulatable fluorescent protein (eYFP) integrated in the cg6 locus is used as the control (55). Transfection
679 into parasites was carried out by preloading RBCs with the donor vector as described previously (57).
680 Briefly, 50 μg of purified plasmid DNA was mixed with human RBCs and subjected to 8 square wave
681 electroporation pulses of 365 V for 1 ms each, separated by 0.1 s in a 0.2 cm cuvette. The plasmid DNA
682 preloaded cells were inoculated with NF54 expressing Cas9 and T7 RNA polymerase. […]
696 Stock solutions of ML901, DHA or borrelidin (Cayman Chemicals) were dispensed into 96-well U-bottom
697 BD Falcon™ plates and serially diluted in complete medium to yield final concentrations ranging from 20-
698 0.08 nM. Synchronous ring-stage YRScyt conditional knockdown line and the aptamer-regulatable control
699 line in varying aTc concentrations (high = 50 or 500 nM, low = 1 nM, and no aTc) were distributed into
700 the drug plate. Lowest drug treatment and a lethal dose of chloroquine (200 nM) served as reference
701 controls. Growth inhibition was analysed after 72 h using the Renilla-Glo(R) Luciferase Assay System (ref
702 no E2750 Promega) and the GloMax® Discover Multimode Microplate Reader (Promega), and IC50 values
703 were obtained from corrected dose-response curves using GraphPad Prism (version 8; GraphPad Software). […]
706 CRISPR/Cas9 was used to generate parasites encoding the S234C mutation in exon 2 of PfYRS, as shown
707 in Suppl Figure 6. Two guide RNAs (gRNA1: […] and gRNA2:
708 […]) were selected using Benchling (benchling.com), and cloned into the
709 pDC2-coCas9-gRNA plasmid essentially as described previously (58). A donor template of 645 bp,
710 encompassing the majority of the 708 bp exon 2, was synthesized (ThermoFisher) and cloned into the
711 AatII/EcoRI sites of both the pDC2-coCas9-gRNA1 and pDC2-coCas9-gRNA2 plasmids. In addition to
712 the TCC>TGC (S234C) mutation, additional silent shield mutations were introduced to prevent gRNA-
713 Cas9 complex binding, as shown in Suppl Figure 6. Ring-stage P. falciparum parasites (Dd2 strain) at 10%
714 parasitemia (150 µL of packed cells) were transfected with 50 µg of plasmid DNA using a BioRad Gene
715 Pulser II (310 V, 950 µF), and selected with 5 nM WR99210 (Jacobus Pharmaceuticals) for 8 days, after
716 which culture was continued without drug pressure until transfectants were obtained. Clones of the
717 PfYRSS234C mutant parasites were isolated by limiting dilution and verified by Sanger sequencing.
719 Protein translation assay
720 P. falciparum Cam 3.II_Rev (25) schizont- (43-48 h p.i.) infected RBCs were pre-incubated with inhibitor
Using a modification of a published procedure (14), the
722 cells were labelled with O-propargyl-puromycin (OPP; 4 µM) for 1 h, washed 3x (PBS +3% serum) and
723 then fixed for 10 minutes (4% formaldehyde/0.02% glutaraldehyde in PBS). The click reaction was
724 performed for 1 h in the presence of CuSO4 (0.1 mM), THPTA (0.5 mM) and sodium ascorbate (5 mM) to
725 bring about azide-alkyne cycloaddition to Alexa Fluor 488 azide (0.1 µM). Flow cytometry was performed
726 using the FITC and Cy™5.5 channels to detect the Alexa Fluor 488 and PI, respectively.
729 Cam 3.II_Rev (25) trophozoite-infected RBCs (25-30 h p.i.) were incubated with inhibitor for 3 h at 10%
730 hematocrit and 5% parasitemia. The RBC pellet was washed 3 x in PBS + cOmplete. Cells were centrifuged
731 at 380 x g for 5 min and the pelleted cells lysed by resuspension in PBS + 0.05% saponin for 5 min on ice.

[5] = tested on: P. falciparum (3D7); assay: P. falciparum (3D7) culture growth inhibition, 72 h; format: cell-based, Plasmodium falciparum; details: Plasmodium falciparum, read-out: Pf3D7 IC50(72h); P. falciparum 3D7, 72 h
Method: (1 picture or pasted object on this page, not shown here)
553 Sigma-Aldrich) for 48-72 h. For drug pulse assays, tightly synchronized parasites (1-1.5% parasitemia,
554 0.2% final hematocrit) were added to the plates and incubated for 3 h. Drugs were removed and the
555 parasitemia assessed in the trophozoite stage of the next cycle.
557 Compounds were tested against a range of drug resistant field isolates and laboratory strains using a
558 modified [3H]-hypoxanthine incorporation assay, as previously reported (46). Field isolates 7G8, Cam3.1,
559 Dd2, K1, TM90C2B and NF54 were obtained from MR4 (www.beiresources.org).
561 Mammalian cell culture experiments
562 The HepG2 (Human hepatocyte carcinoma) cell line was procured from ATCC (American Type
563 Culture Collection, Manassas, USA; HB-8065) and viability assessed using Cell Titer-GLO luminescent
564 cell viability assay reagents (Promega, catalogue number: G7570) (47, 48). For the assay, 2000 cells/well
565 were plated in 384-well plates 24 h prior to the experiment and incubated at 37°C in a CO2 incubator. The
566 medium was removed and cells were treated with fresh medium containing either vehicle (0.5% DMSO)
567 or serially diluted test compounds or doxorubicin (1.3 nM to 25 µM) in a final volume of 50 µl/well and
568 further incubated for 72 h at 37°C in a CO2 incubator.
569 were treated with 5 µl of 1% Triton X-100 (final assay conc. 0.1%). Following incubation, 25 µl of medium
570 was discarded and 25 µl of Cell Titer-GLO reagent was added to each well and the plate was kept on a plate
571 shaker for 15 min at 25°C with shaking at 300 rpm. Luminescence signals were measured in a Spectramax
572 M5 reader (Molecular Devices).
574 H1650 is a human lung cancer derived ATG7-null cell line (49) that can be used to assess effects on targets
576 adenocarcinoma; bronchoalveolar carcinoma). Other cells lines used are: H460 (NCI-H460; human lung;
577 carcinoma; large cell lung cancer; ATCC: HTB-177); and HCT116 (human colon; colorectal carcinoma;
578 ATCC: CCL-247; Lot : 5056139). Each of the cell lines was received from the American Type Culture
579 Collection (ATCC) and passaged twice before freezing. Cells were cultured in the presence or absence of
580 inhibitors and cell viability was assessed by comparing the ATP content in compound-treated wells with
581 that in DMSO-treated wells as previously described (11).
583 HeLa cells (human cervical adenocarcinoma; genome sequenced (Garvin Institute, Australia) and verified

| SMILES | Tm ([1]; HsYRS 2.3 μM, after incubation at 37°C for 3 h) [oC] | DTm ([1]; HsYRS, versus apo) [oC] | Kd ([1]; HsYRS, estimated from DSF by empirical correlation of DTm and KD, read-out: Apparent KD*) [nM] | Tm ([2]; PfYRS 2.3 μM, after incubation at 37°C for 3 h) [oC] | DTm ([2]; PfYRS, versus apo) [oC] | Kd ([2]; PfYRS, estimated from DSF by empirical correlation of DTm and KD, read-out: Apparent KD*) [nM] | Tm ([3]; PfYRSS234C 2.3 μM, after incubation at 37°C for 3 h) [oC] | DTm ([3]; PfYRSS234C, versus apo) [oC] | Kd ([3]; PfYRSS234C, estimated from DSF by empirical correlation of DTm and KD, read-out: Apparent KD*) [nM] | IC50 ([4]; high aTc (500 nM)) [nM] | IC50 ([4]; low aTc (1 nM)) [nM] | IC50 ([4]; no aTc) [nM] | Fold change in IC50 (high aTc/ no aTc), PfYRS knockdown line (control compounds) ([4]; high aTc 500 nM) | IC50 [5] [nM] |
| --- | --- | --- | --- | --- | --- | --- | --- | --- | --- | --- | --- | --- | --- | --- |
| Nc1ncnc2c1ncn2[C@@H]1O[C@H](COP(=O)(O)OC(=O)[C@@H](N)Cc2ccc(O)cc2)[C@@H](O)[C@H]1O [AMP-Tyr] | 53.3 ± 0.2 | 2.8 | 116 | 62.6 ± 0.2 | 12.4 | 2.2 | 57.1 ± 0.3 | 6.5 | 24 | – | – | – | – | – |
| C[C@H]1[C@@H](O)O[C@@H]2O[C@@]3(C)CC[C@H]4[C@H](C)CC[C@@H]1[C@@]24OO3 [DHA, Dihydroartemisinin] | – | – | – | – | – | – | – | – | – | 1.1 ± 0.3 | 1.6 ± 0.5 | 1.2 ± 0.4 | no change | 2.9 ± 0.2 |
